Assay results taken from ChEMBL document CHEMBL1143526, “Benzothiazolium compounds: novel classes of inhibitors that suppress the nitric oxide production in RAW264.7 cells stimulated by LPS/IFNgamma” (Bioorg Med Chem Lett, 2005).

Experiments:
RAW264.7 [1] = assay: Suppression of nitric oxide production in the LPS/IFN gamma stimulated RAW264.7 cells; type: functional, cell-based; conditions: Mus musculus
RAW264.7 [2] = assay: Inhibition of LPS/IFN gamma stimulated RAW264.7 cells determined by MTS assay; type: functional; conditions: Mus musculus

| Structure (SMILES) | IC50 (RAW264.7 [1]) [µM] | GI50 (RAW264.7 [2]) [µM] |
| --- | --- | --- |
| CCN1/C(=C/c2sc3cc(C)c(C)cc3[n+]2CC)C=Cc2ccccc21 | 0.258 | 5.8 |
| CN1/C(=C/C(=C/c2sc3ccccc3[n+]2C)C2CCC2)Sc2ccccc21 | 0.662 | 6.5 |
| CCCN1/C(=C/c2sc3ccccc3[n+]2CC)C=Cc2ccccc21 | 0.288 | > 10 |
| CC[n+]1c(/C=C(\C)Nc2ccccc2)sc2ccccc21 | 44.8 | > 10 |
| CCN1/C(=C/c2sc3ccccc3[n+]2CC)Sc2ccccc21 | 0.403 | > 10 |
| NC(=C\c1sc2ccccc2[n+]1CCCS(=O)(=O)O)/C=C1\Sc2ccccc2N1CCCS(=O)(=O)O | 51.9 | > 10 |
| COc1ccc2sc(/C=C(\C)SC)[n+](CCCS(=O)(=O)[O-])c2c1 | 69.5 | > 10 |
| CCN1/C(=C/C(=C/c2sc3ccccc3[n+]2CC)SC)Sc2ccccc21 | 0.637 | > 10 |
| CCN1/C(=C/c2sc3ccccc3[n+]2C)C=Cc2ccccc21 | 0.216 | > 10 |
| CC/C(=C\c1sc2ccc(OC)cc2[n+]1CC)SC | 3.99 | > 10 |
| CN(C)c1ccc(/C=C/c2sc3ccc4ccccc4c3[n+]2C)cc1 | 2.16 | > 10 |
| CC[n+]1c(/C=C/c2ccc(N(C)C)cc2)sc2ccc(C)cc21 | 2.33 | > 10 |
| CCC(/C=C1\Sc2ccccc2N1C)=C\c1sc2ccccc2[n+]1C | 0.055 | 5.5 |
| CC[n+]1c(/C=C/c2ccc(N(C)C)cc2)sc2cc(NC(C)=O)ccc21 | 3.31 | > 10 |
| CCN1/C(=C/C(N)=C/c2sc3ccccc3[n+]2CC)Sc2ccccc21 | 0.847 | > 10 |
| CC[n+]1c(/C=C2\C=Cc3ccc(C)cc3N2CCCS(=O)(=O)O)sc2ccccc21 | 27.2 | > 10 |
| CCC(/C=C1\Sc2ccccc2N1CCCS(=O)(=O)O)=C\c1sc2ccccc2[n+]1CC | 5.78 | > 10 |
| CC[n+]1c(/C=C/c2ccc(N(C)C)cc2)sc2ccc(C(=O)OC)cc21 | 10.8 | > 10 |
| CCC(/C=C1\Sc2ccc(Cl)cc2N1C)=C\c1sc2ccc(Cl)cc2[n+]1C | 0.402 | 7.9 |
| CN(C)c1ccc(/C=C/c2sc3ccccc3[n+]2C)cc1 | 4.8 | > 10 |
| CC[n+]1c(/C=C(\C)NCc2ccccc2)sc2ccccc21 | 7.61 | > 10 |
| CC[n+]1c(/C=C(/C)SC)sc2ccc(OC)cc21 | 18.4 | > 10 |
| CC[n+]1c(/C=C2\Sc3ccccc3N2CCC(=O)O)sc2ccccc21 | 11.5 | > 10 |
| CCN1/C(=C/C(=C/c2sc3ccccc3[n+]2CC)OC)Sc2ccccc21 | 0.461 | > 10 |
| CCN1C(=Cc2sc3ccc(OC)cc3[n+]2CC)C=Cc2ccccc21 | 1.06 | 9.3 |

| Structure (SMILES) | IC50 (RAW264.7 [1]) [µM] | GI50 (RAW264.7 [2]) [µM] |
| --- | --- | --- |
| CCN1/C(=C/c2sc3ccccc3[n+]2CC)C=Cc2cc(NC(C)=O)ccc21 | 13.3 | > 10 |
| O=S(=O)(O)CCCN1/C(=C/c2sc3ccccc3[n+]2CCCS(=O)(=O)O)C=Cc2ccccc21 | 64.6 | > 10 |
| CCN1C(=Cc2sc3ccccc3[n+]2C)C=Cc2ccc(C)cc21 | 0.444 | > 10 |
| CCN1/C(=C/c2sc3ccc(I)cc3[n+]2CC)C=Cc2ccccc21 | 0.259 | > 10 |
| CC[n+]1c(C=C2Sc3ccccc3N2CCO)sc2ccccc21 | 10.7 | > 10 |
| CC[n+]1c(/C=C2\C=Cc3ccc(C)cc3N2C)sc2ccccc21 | 0.253 | > 10 |
| CCN1/C(=C/c2sc3ccccc3[n+]2CC)C=Cc2ccccc21 | 0.244 | > 10 |
| CC[n+]1c(/C=C(/C)SC)sc2ccccc21 | 24.2 | > 10 |
| CC[n+]1c(/C=C2\C=Cc3cc(C)ccc3N2C)sc2ccccc21 | 0.178 | > 10 |
| CC/C(=C/c1sc2ccc(OC)cc2[n+]1CC)SC | 3.64 | > 10 |
| CC(/C=C1\Sc2ccccc2N1CCO)=C\c1sc2ccccc2[n+]1CCO | 20.2 | > 10 |
| CCN1/C(=C/C(C)=C/c2sc3ccccc3[n+]2CC)Sc2ccccc21 | 0.198 | > 10 |
| CC/C(=C\c1sc2ccc(OC)cc2[n+]1CCCS(=O)(=O)[O-])SC | 66.1 | > 10 |
| CCN1/C(=C/c2sc3ccc(Br)cc3[n+]2CC)C=Cc2ccccc21 | 0.241 | > 10 |
| CCN1/C(=C/c2sc3ccc(C)cc3[n+]2CC)C=Cc2ccccc21 | 0.295 | > 10 |
| CC[n+]1c(/C=C/c2ccc(N(C)C)cc2)sc2cc(C)ccc21 | 2.27 | > 10 |
| CCN1/C(=C/c2sc3ccccc3[n+]2CC)C=Cc2ccc(C)cc21 | 0.183 | > 10 |
| CCC(/C=C1\Sc2ccc(Cl)cc2N1CC)=C\c1sc2ccc(Cl)cc2[n+]1CC | 0.741 | 9 |
| CCC(/C=C1\Sc2ccccc2N1CC)=C\c1sc2ccccc2[n+]1CC | 0.062 | 5.5 |
| CC[n+]1c(/C=C/c2ccc(N(C)C)cc2)sc2ccccc21 | 4.94 | > 10 |
| CCN1/C(=C/c2sc3cc(OC)c(OC)cc3[n+]2CC)C=Cc2ccccc21 | 0.684 | > 10 |
| CCN1C(=Cc2sc3ccccc3[n+]2C)C=Cc2cccc(C)c21 | 0.318 | > 10 |
| CN1/C(=C/c2sc3ccccc3[n+]2C)Sc2ccccc21 | 4.69 | > 10 |
| CCCC[n+]1c(C=C2C=Cc3ccccc3N2CC)sc2ccccc21 | 0.215 | 5.5 |
